Patent US5609749A, “Electrochemical assay method with novel p-phenylenediamine compound” (Mochida Pharmaceutical Co., Ltd., priority 1993, dated 1997)

What was measured:
[1] = Current response of electron mediators in buffer solution and in the presence of blood, urine
Excerpt: Of these oxidation-reduction enzymes, glucose oxidase (GOD) is used in enzyme electrodes for the measurement of blood glucose level and horseradish peroxidase (HRPO) is used as a label enzyme in specific binding assays such as DNA hybridization, immunoassay and the like. […] However, these electron mediators were not able to show stable and reproducible response in the presence of blood, urine and the like because of the interfering substances contained therein.

[2] = target: T1, Horseradish peroxidase (HRPO) (Armoracia rusticana, UniProt P00433); assay: Electron transfer activity 2: HRPO-hydrogen peroxide-compound, current at -80 mV or -150 mV; format: biochemical; details: -80 mV or -150 mV vs Ag/AgCl, pH 6.0
T1 construct: purchased TOYOBO
T1 sequence (P00433 31-338 limits assumed): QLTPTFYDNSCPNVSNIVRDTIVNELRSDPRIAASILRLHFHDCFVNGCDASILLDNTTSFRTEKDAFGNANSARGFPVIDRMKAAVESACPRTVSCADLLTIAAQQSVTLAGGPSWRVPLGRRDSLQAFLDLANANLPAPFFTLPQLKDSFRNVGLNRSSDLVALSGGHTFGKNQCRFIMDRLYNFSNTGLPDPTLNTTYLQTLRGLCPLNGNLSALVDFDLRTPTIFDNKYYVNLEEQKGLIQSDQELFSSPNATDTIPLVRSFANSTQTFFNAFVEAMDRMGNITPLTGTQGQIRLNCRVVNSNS
Description: Measurement of electron transfer activities of TCPD, THEPD, TDHPD, HTEPD, N,N-BHDPD, N,N'-BHPD, N,N'-BHDPD, and p-phenylenediamine derivatives having substituted amino group by reacting p-phenylenediamine with propyleneoxide--2
Horseradish peroxidase (HRPO, manufactured by TOYOBO) was dissolved in 0.1M phosphate buffer (pH 6.0) containing 0.1M NaCl to prepare 0M and 5.0×10^-7 M HRPO solutions. Also, hydrogen peroxide (manufactured by Wako Pure Chemical Industries) was dissolved in the same buffer to prepare a 1.0×10^-1 M solution. In the same manner, each of the TCPD, THEPD, TDHPD, HTEPD, N,N-BHDPD, N,N'-BHPD, N,N'-BHDPD, and p-phenylenediamine derivatives having substituted amino group by reacting p-phenylenediamine with propyleneoxide obtained in Synthesis Examples 1 to 9 was dissolved in the same buffer to prepare a 5.0×10^-3 M solution.
Each of these solutions was mixed in 0.1M phosphate buffer (pH 6.0) containing 0.1M NaCl in the following mixing ratio just before the measurement to prepare solutions of the following compositions A and B, and electric current was measured continuously in the presence (composition A) or absence (composition B) of HRPO.
Using the same apparatus of Test Example 2, electric current was measured in the presence (composition A) or absence (composition B) of HRPO for 5 or 10 minutes after application of potential of -80 mV (vs Ag/AgCl, the same shall apply hereinafter) in the case of TEPD, THEPD, and TDHPD, or -150 mV in the case of TCPD, HTEPD, N,N-BHDPD, N,N'-BHPD, N,N'-BHDPD, and p-phenylenediamine derivatives having substituted amino group by reacting p-phenylenediamine with propyleneoxide.

[3] = Dry chemistry type chips: filter paper impregnated with mediator solution and dried on an electrode; details: mediator dried on cellulose or glass filter paper, dissolved by liquid sample
Excerpt: In addition, the present inventors have attempted to prepare a dry chemistry type chips by impregnating a piece of cellulose filter paper or glass filter paper with a solution of HQ, PPD, TMPD or TEPD and drying the resulting piece on an electrode (by freeze-drying, vacuum drying, air-drying or the like) or arranging it on an electrode after drying so that the impregnated electron mediator can dissolve in a liquid sample at the time of measurement.

SMILES | current response ([1]; in a buffer solution) | response in the presence of blood, urine and the like ([1]; interfering substances in blood, urine) | function as electron mediator between HRPO and the electrode [2] | current response and characteristics of dry chemistry type chips [3]
CCN(CC)c1ccc(N(CC)CC)cc1.Cl.Cl [TEPD, N,N,N',N'-tetraethyl-p-phenylenediamine dihydrochloride, reference compound] | excellent current response | interference | function as a reversible electron mediator between HRPO and the electrode | low current response and extremely poor characteristics
Cl.Cl.OCCN(CCO)c1ccc(N(CCO)CCO)cc1 [THEPD, N,N,N',N'-tetrakis-(2'-hydroxyethyl)-p-phenylenediamine dihydrochloride] |  |  | function as a reversible electron mediator between HRPO and the electrode | 
